According to PubChem BioAssay AID1117355 (Cheminformatics & Chemogenomics Research Group (CCRG), …, 2015):
Active and inactive are the calls of the source. How the calls were made is not given here.

Biological target: Glycogen synthase kinase-3 beta (Homo sapiens) (UniProt P49841)
Test: NPC library primary assay, GSK-3β enzyme inhibitors, biochemical, Homo sapiens, LANCE Ultra TR-FRET detection (AID 1117355)
Conditions: LANCE Ultra TR-FRET kinase activity; at 20 µM (top of the series)

Glycogen synthase kinase-3 beta (Homo sapiens), sequence (P49841 whole entry, looked up): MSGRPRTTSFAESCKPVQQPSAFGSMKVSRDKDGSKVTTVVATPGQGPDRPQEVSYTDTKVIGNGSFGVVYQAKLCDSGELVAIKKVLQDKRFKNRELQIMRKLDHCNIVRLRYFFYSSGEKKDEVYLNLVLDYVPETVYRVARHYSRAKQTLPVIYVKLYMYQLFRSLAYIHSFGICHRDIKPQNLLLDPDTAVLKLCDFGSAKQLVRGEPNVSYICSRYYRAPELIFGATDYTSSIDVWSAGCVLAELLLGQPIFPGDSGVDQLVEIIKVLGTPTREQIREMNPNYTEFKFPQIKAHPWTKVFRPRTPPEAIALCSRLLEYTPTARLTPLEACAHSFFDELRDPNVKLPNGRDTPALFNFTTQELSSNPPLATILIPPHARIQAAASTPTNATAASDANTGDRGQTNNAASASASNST

Question: With COc1c(C)c2c(c(O)c1C/C=C(\C)CCC(=O)OCCN1CCOCC1)C(=O)OC2 as the molecule, how does the inhibition read?
Answer: 11.3% (inactive)

Question: For Oc1c(Cl)cc(Cl)c2cccnc12, which inhibition is on record?
Answer: -26.5% (inactive)

Question: For Cc1cc2c(C(C)C)c(O)c(O)c(C=O)c2c(O)c1-c1c(C)cc2c(C(C)C)c(O)c(O)c(C=O)c2c1O, which inhibition is on record?
Answer: 7.52% (inactive)

Question: How did the inhibition turn out when CCCCc1oc2ccccc2c1C(=O)c1cc(I)c(OCCN(CC)CC)c(I)c1 was run?
Answer: 26% (inactive)

Question: With CCCOc1ccc2nc(NC(=O)OC)[nH]c2c1 as the molecule, how does the inhibition read?
Answer: -5.09% (inactive)

Question: Which inhibition does the source give for COc1cccc2c1C(=O)c1c(O)c3c(c(O)c1C2=O)C[C@@](O)(C(C)=O)C[C@@H]3O[C@H]1C[C@H](N)[C@H](O)[C@H](C)O1 here?
Answer: 7.12% (inactive)

Question: With CC[C@]1(O)C[C@@H]2CN(CCc3c([nH]c4ccccc34)[C@@](C(=O)OC)(c3cc4c(cc3OC)N(C)[C@H]3[C@@](O)(C(=O)OC)[C@H](OC(C)=O)[C@]5(CC)C=CCN6CC[C@]43[C@@H]65)C2)C1 as the molecule, how does the inhibition read?
Answer: -4.66% (inactive)

Question: Which inhibition does the source give for Cc1nc(N)nc(N)c1-c1ccc(Cl)c(Cl)c1 here?
Answer: -1.14% (inactive)

Question: With O=C(Nc1ccc([N+](=O)[O-])cc1Cl)c1cc(Cl)ccc1O as the molecule, how does the inhibition read?
Answer: -11.3% (inactive)

Question: Which inhibition does the source give for COc1cc(-c2ccc(=O)[nH]n2)ccc1OC(F)F here?
Answer: -21.7% (inactive)

Question: How did the inhibition turn out when COc1ccc(-c2ccc3cc(C(=O)O)ccc3c2)cc1C12CC3CC(CC(C3)C1)C2 was run?
Answer: 79.4%

Question: For Cc1ccc2nc(N)[nH]c(=O)c2c1Sc1ccncc1, which inhibition is on record?
Answer: -35.9% (inactive)

Question: With COc1cc([C@@H]2c3cc4c(cc3[C@H](O)[C@H]3COC(=O)[C@H]23)OCO4)cc(OC)c1OC as the molecule, how does the inhibition read?
Answer: 26.6% (inactive)

Question: Which inhibition does the source give for COC(=O)Nc1nc2ccc(C(=O)c3cccs3)cc2[nH]1 here?
Answer: 42.2% (inactive)

Question: With C[C@@]12C(=O)OC(=O)[C@]1(C)C1CCC2O1 as the molecule, how does the inhibition read?
Answer: 2.16% (inactive)

Question: For COc1cc(NCc2ccc3nc(N)nc(N)c3c2C)cc(OC)c1OC, which inhibition is on record?
Answer: 2.46% (inactive)

Question: CC(=O)Oc1ccc(C2(c3ccc(OC(C)=O)cc3)Oc3ccccc3NC2=O)cc1 was tested. Which inhibition did it give?
Answer: 19% (inactive)

Question: With O=C(CCCCCCC(=O)Nc1ccccc1)NO as the molecule, how does the inhibition read?
Answer: -28.8% (inactive)

Question: For O=[N+]([O-])c1ccc(O)c2ncccc12, which inhibition is on record?
Answer: -9.81% (inactive)

Question: Which inhibition does the source give for [O-][n+]1ccccc1SSc1cccc[n+]1[O-] here?
Answer: -25.6% (inactive)

Question: Which inhibition does the source give for COC(=O)Nc1nc2ccc(C(=O)c3ccccc3)cc2[nH]1 here?
Answer: 25.4% (inactive)

Question: With O=C(CCl)c1ccc(Cl)cc1Cl as the molecule, how does the inhibition read?
Answer: 9.91% (inactive)

Question: How did the inhibition turn out when Cc1ccc([N+](=O)[O-])[c]2c1[O][Hg]2 was run?
Answer: 66.1%

Question: Which inhibition does the source give for COc1cc2c(c(OC)c1OC)-c1ccc(OC)c(=O)cc1[C@@H](NC(C)=O)CC2 here?
Answer: 4.13% (inactive)

Question: Cc1nc2ccc(CN(C)c3ccc(C(=O)N[C@@H](CCC(=O)O)C(=O)O)s3)cc2c(=O)[nH]1 was tested. Which inhibition did it give?
Answer: 81.3%

Question: For COC(=O)c1nc(Cl)c(Cl)nc1N, which inhibition is on record?
Answer: 20.8% (inactive)

Question: With CCCCCCNC(=O)n1cc(F)c(=O)[nH]c1=O as the molecule, how does the inhibition read?
Answer: -7.61% (inactive)

Question: Which inhibition does the source give for S=c1nc[nH]c2nc[nH]c12 here?
Answer: 20.7% (inactive)

Question: CCCCCCCCCCCCCCCC[n+]1ccccc1 was tested. Which inhibition did it give?
Answer: -21.5% (inactive)

Question: With CC[C@@H]([C@H](C)O)n1ncn(-c2ccc(N3CCN(c4ccc(OC[C@@H]5CO[C@@](Cn6cncn6)(c6ccc(F)cc6F)C5)cc4)CC3)cc2)c1=O as the molecule, how does the inhibition read?
Answer: 8.55% (inactive)

Question: Oc1c(Cl)cc(Cl)cc1Sc1cc(Cl)cc(Cl)c1O was tested. Which inhibition did it give?
Answer: 81.3%

Question: With CCCCCCCCCCCCCCCCCCNC(=O)OC1CCN(C(=O)OC[C@H](COC(=O)N(Cc2cccc[n+]2CC)C(=O)c2ccccc2OC)OC)CC1 as the molecule, how does the inhibition read?
Answer: 24% (inactive)

Question: How did the inhibition turn out when CC(C)(C)C1CCC(CC2=C(O)c3ccccc3C(=O)C2=O)CC1 (stereo unspecified) was run?
Answer: 10.2% (inactive)

Question: NC(=NCCCCCCN=C(N)/N=C(\N)Nc1ccc(Cl)cc1)/N=C(\N)Nc1ccc(Cl)cc1 was tested. Which inhibition did it give?
Answer: 0.77% (inactive)

Question: With Cc1cc(O)c2ccccc2c1O as the molecule, how does the inhibition read?
Answer: 50.4%

Question: For CN1CC[C@H](c2c(O)cc(O)c3c(=O)cc(-c4ccccc4Cl)oc23)[C@H](O)C1, which inhibition is on record?
Answer: 99.9%

Question: CCC1=C[C@@H]2CN(C1)Cc1c([nH]c3ccccc13)[C@@](C(=O)OC)(c1cc3c(cc1OC)N(C)[C@H]1[C@@](O)(C(=O)OC)[C@H](OC(C)=O)[C@]4(CC)C=CCN5CC[C@]31[C@@H]54)C2 was tested. Which inhibition did it give?
Answer: 24.2% (inactive)

Question: CCCCC1C(=O)N(c2ccccc2)N(c2ccc(O)cc2)C1=O (stereo unspecified) was tested. Which inhibition did it give?
Answer: 5.48% (inactive)

Question: Which inhibition does the source give for C=CC(=O)Nc1cc2c(Nc3ccc(F)c(Cl)c3)ncnc2cc1OCCCN1CCOCC1 here?
Answer: 31.2% (inactive)

Question: Which inhibition does the source give for Cc1nc(Nc2ncc(C(=O)Nc3c(C)cccc3Cl)s2)cc(N2CCN(CCO)CC2)n1 here?
Answer: 38.8% (inactive)

Question: O=C(O)c1ccc(-n2nc(-c3ccccc3O)nc2-c2ccccc2O)cc1 was tested. Which inhibition did it give?
Answer: 37.5% (inactive)

Question: How did the inhibition turn out when C=C(C)[C@H]1Cc2c(ccc3c2O[C@@H]2COc4cc(OC)c(OC)cc4[C@@H]2C3=O)O1 was run?
Answer: 21.6% (inactive)

Question: With O=c1c(-c2ccccc2)c1-c1ccccc1 as the molecule, how does the inhibition read?
Answer: 31.4% (inactive)

Question: How did the inhibition turn out when CCN(CC)CCOc1ccc(/C(=C(\Cl)c2ccccc2)c2ccccc2)cc1 was run?
Answer: -11.9% (inactive)

Question: Which inhibition does the source give for COc1ccc(-c2nc3ccc(C4=NNC(=O)CC4C)cc3[nH]2)cc1 (stereo unspecified) here?
Answer: -64.9% (inactive)

Question: Which inhibition does the source give for CCCN(CCC)C(=O)C(CCC(=O)OCCCN1CCN(CCOC(=O)Cc2c(C)n(C(=O)c3ccc(Cl)cc3)c3ccc(OC)cc23)CC1)NC(=O)c1ccccc1 (stereo unspecified) here?
Answer: 0.27% (inactive)

Question: For Nc1ccc2cc3ccc(N)cc3nc2c1, which inhibition is on record?
Answer: -57.5% (inactive)

Question: With Cc1cc(C2CCCCC2)n(O)c(=O)c1 as the molecule, how does the inhibition read?
Answer: 0.84% (inactive)

Question: CCC(C)n1ncn(-c2ccc(N3CCN(c4ccc(OC[C@H]5CO[C@](Cn6cncn6)(c6ccc(Cl)cc6Cl)O5)cc4)CC3)cc2)c1=O (stereo partly specified) was tested. Which inhibition did it give?
Answer: 14.1% (inactive)

Question: How did the inhibition turn out when CNC(=O)c1cc(Oc2ccc(NC(=O)Nc3ccc(Cl)c(C(F)(F)F)c3)cc2)ccn1 was run?
Answer: 47.6% (inactive)

Question: Which inhibition does the source give for CCCSc1ccc2nc(NC(=O)OC)[nH]c2c1 here?
Answer: -11.3% (inactive)

Question: With O=c1[nH]c(=O)n([C@H]2C[C@H](O)[C@@H](CO)O2)cc1F as the molecule, how does the inhibition read?
Answer: -21.3% (inactive)

Question: COC(=O)Nc1nc2ccc(C(=O)C3CC3)cc2[nH]1 was tested. Which inhibition did it give?
Answer: 54.4%

Question: O=c1[nH]c(=O)n([C@H]2C[C@H](O)[C@@H](CO)O2)cc1C(F)(F)F was tested. Which inhibition did it give?
Answer: 17.2% (inactive)

Question: How did the inhibition turn out when CCN(CC)CCNc1ccc(CO)c2sc3ccccc3c(=O)c12 was run?
Answer: 24.6% (inactive)

Question: With CC(C)C[C@H](NC(=O)[C@H](CCc1ccccc1)NC(=O)CN1CCOCC1)C(=O)N[C@@H](Cc1ccccc1)C(=O)N[C@@H](CC(C)C)C(=O)[C@@]1(C)CO1 as the molecule, how does the inhibition read?
Answer: 20.4% (inactive)

Question: Which inhibition does the source give for CC(=O)[C@]1(O)Cc2c(O)c3c(c(O)c2[C@@H](O[C@H]2C[C@H](N)[C@H](O)[C@H](C)O2)C1)C(=O)c1ccccc1C3=O here?
Answer: 5.63% (inactive)

Question: Which inhibition does the source give for CC(C)(C)C(=O)OCOP(=O)(COCCn1cnc2c(N)ncnc21)OCOC(=O)C(C)(C)C here?
Answer: 7.97% (inactive)

Question: How did the inhibition turn out when Cc1cc(=O)c2c(O)c3c(O)cc(=O)c4c3c3c(cc(O)c1c23)C(C)(C)C=4O was run?
Answer: 60.6%

Question: O=C(NOCC1CC1)c1ccc(F)c(F)c1Nc1ccc(I)cc1Cl was tested. Which inhibition did it give?
Answer: -12.6% (inactive)

Question: For CSc1ccc2c(c1)C(N1CCN(C)CC1)Cc1ccccc1S2 (stereo unspecified), which inhibition is on record?
Answer: 0.73% (inactive)

Question: How did the inhibition turn out when COC(=O)[C@H]1[C@H]2C[C@@H]3c4[nH]c5cc(OC)ccc5c4CCN3C[C@H]2C[C@@H](OC(=O)/C=C/c2ccc(O)c(OC)c2)[C@@H]1OC was run?
Answer: 7.56% (inactive)

Question: COc1ccc2cc1Oc1ccc(cc1)C[C@H]1c3c(cc4c(c3Oc3cc5c(cc3OC)CCN(C)[C@@H]5C2)OCO4)CCN1C was tested. Which inhibition did it give?
Answer: 2.24% (inactive)

Question: Oc1c(I)cc(I)c2cccnc12 was tested. Which inhibition did it give?
Answer: -1.57% (inactive)

Question: CCN(CC)CCNC(=O)c1c(C)[nH]c(/C=C2\C(=O)Nc3ccc(F)cc32)c1C was tested. Which inhibition did it give?
Answer: 62.9%

Question: With COC(=O)Nc1nc2ccc(S(=O)c3ccccc3)cc2[nH]1 (stereo unspecified) as the molecule, how does the inhibition read?
Answer: -3.53% (inactive)

Question: Cc1cc(C)c(/C=C2\C(=O)Nc3ccccc32)[nH]1 was tested. Which inhibition did it give?
Answer: -34.3% (inactive)

Question: Which inhibition does the source give for CCc1nc(N)nc(N)c1-c1ccc(Cl)cc1 here?
Answer: -8.63% (inactive)

Question: For Cc1ccccc1C(=O)Nc1ccc(C(=O)N2CCCC(N(C)C)c3ccccc32)cc1 (stereo unspecified), which inhibition is on record?
Answer: 18.2% (inactive)

Question: With Nc1nc(=S)c2[nH]cnc2[nH]1 as the molecule, how does the inhibition read?
Answer: -30.7% (inactive)

Question: C[n+]1c2cc(N)ccc2cc2ccc(N)cc21 (tested in a mixture with another compound) was tested. Which inhibition did it give?
Answer: -24.7% (inactive)

Question: CN(C)c1ccc2nc3ccc(=[N+](C)C)cc-3sc2c1 was tested. Which inhibition did it give?
Answer: -210% (inactive)

Question: For COCc1c(C(C)C)nc(C(C)C)c(/C=C/[C@@H](O)C[C@@H](O)CC(=O)O)c1-c1ccc(F)cc1, which inhibition is on record?
Answer: 3.27% (inactive)

Question: COC(=O)Nc1nc2ccc(Sc3ccccc3)cc2[nH]1 was tested. Which inhibition did it give?
Answer: -21% (inactive)

Question: How did the inhibition turn out when Cn1cnc([N+](=O)[O-])c1Sc1ncnc2nc[nH]c12 was run?
Answer: -18.2% (inactive)

Question: For CC(C)C[C@H](NC(=O)[C@H](Cc1ccccc1)NC(=O)c1cnccn1)B(O)O, which inhibition is on record?
Answer: 1.64% (inactive)

Question: How did the inhibition turn out when O=C1c2c(O)ccc(O)c2C(=O)c2c(NCCNCCO)ccc(NCCNCCO)c21 was run?
Answer: -5.18% (inactive)

Question: COc1cc2nc(N3CCN(C(=O)c4ccco4)CC3)nc(N)c2cc1OC was tested. Which inhibition did it give?
Answer: -50.4% (inactive)

Question: CC[C@]1(O)C[C@H]2CN(CCc3c([nH]c4ccccc34)[C@@](C(=O)OC)(c3cc4c(cc3OC)N(C=O)[C@H]3[C@@](O)(C(=O)OC)[C@H](OC(C)=O)[C@]5(CC)C=CCN6CC[C@]43[C@@H]65)C2)C1 was tested. Which inhibition did it give?
Answer: -0.84% (inactive)

Question: How did the inhibition turn out when CC[C@@]1(O)C(=O)OCc2c1cc1n(c2=O)Cc2c-1nc1ccccc1c2/C=N/OC(C)(C)C was run?
Answer: 16.9% (inactive)

Question: With CCCCCCCCCCCCCC[N+](C)(C)C as the molecule, how does the inhibition read?
Answer: -4.51% (inactive)
